Data taken from ChEMBL document CHEMBL1145392, “Natural feruloyl monoglyceride macrocycles as protecting factors against free-radical damage of lipidic membranes” (Bioorg Med Chem Lett, 2007).
Active and inactive are the calls of the source.

Legend:
Format in all cases: functional
[1] = Hydrogen peroxide radical scavenging activity
[2] = test system: Liver microsomes; assay: Inhibition of lipid peroxidation activity in Wistar rat liver microsomes by TBRAS assay; conditions: Microsome
[3] = Superoxide radical scavenging activity assessed as NBT reduction

Measured: Activity

COc1cc(/C=C\C(=O)OCC2COC(=O)CCCCCCCCCCCCCCCCCCCCCCCCCCCCCCCCCO2)ccc1O (configuration not stated)
active: [1] | [2] | [3]

COc1cc(/C=C/C(=O)OCC2COC(=O)CCCCCCCCCCCCCCCCCCCCO2)ccc1O (configuration not stated)
active: [1] | [2] | [3]

COc1cc(/C=C/C(=O)OCC2COC(=O)CCCCCCCCCCCCCCCCCCCCCCCO2)ccc1O (configuration not stated)
active: [1] | [2] | [3]

COc1cc(/C=C/C(=O)OCC2COC(=O)CCCCCCCCCCCCCCCCCCCCCCCCO2)ccc1O (configuration not stated)
active: [1] | [2] | [3]

COc1cc(/C=C/C(=O)OCC2COC(=O)CCCCCCCCCCCCCCCCCCCCCCCCCCO2)ccc1O (configuration not stated)
active: [1] | [2] | [3]

COc1cc(/C=C/C(=O)OCC2COC(=O)CCCCCCCCCCCCCCCCCCCCCCCCCCCCO2)ccc1O (configuration not stated)
active: [1] | [2] | [3]

COc1cc(/C=C\C(=O)OCC2COC(=O)CCCCCCCCCCCCCCCCCCCCCCCCO2)ccc1O (configuration not stated)
active: [1] | [2] | [3]

COc1cc(/C=C/C(=O)OCC2COC(=O)CCCCCCCCCCCCCCCCCCCCCCCCCCCCCO2)ccc1O (configuration not stated)
active: [1] | [2] | [3]

COc1cc(/C=C/C(=O)OCC2COC(=O)CCCCCCCCCCCCCCCCCCO2)ccc1O (configuration not stated)
active: [1] | [2] | [3]
